Assay results reported in PMC4673326, “Design and Synthesis of a Novel Cationic Peptide with Potent and Broad-Spectrum Antimicrobial Activity” (BioMed Research International, 2015).
Ends that are not written are not given here.

What was measured:
Type in all cases: cell-based
[1] = tested on: Staphylococcus epidermidis
Method: (§1) Two Gram-positive bacteria, 3 Gram-negative bacteria, and 2 fungi were selected to measure antibacterial activity of peptides. The strains were provided by Department of Microbiology in China Pharmaceutical University and were stored at 4°C until use.
(§2) Antimicrobial activity was evaluated using an inhibition zone assay or determination of the minimal inhibitory concentration (MIC) value with minor modifications as described previously: • Inhibition zone assay: agar plates were seeded with strains (about 10^6 cells in 10 mL of 1% agar medium). Wells (3 mm in diameter) were punched out and a 5 μL peptide sample dissolved in water was loaded. Controls were loaded with water. After incubation at 37°C overnight, the diameter of the inhibition zone was determined. • Determination of the MIC value: MICs were determined using a standard serial dilution method in appropriate medium for each bacterial strain listed in Table 3. In brief, 1 mL of different peptides dilution solutions was poured into a series of sterile plates, and then 9 mL appropriate medium that was preincubated at 37°C was added into a plate and was mixed gently to reach various concentrations (512, 256, 128, 64, 32, 16, 8, 4, 2, 1, and 0.5 μg/mL). Bacteria were added to the 96-well plates. The amount of bacteria for each spot is approximately 10^4 to 10^5 CFU/mL. After incubating the inoculated plate at 37°C for 16 to 18 hours, MICs were determined as the lowest peptide concentration that inhibited bacterial growth. All MICs were determined in two independent experiments performed in duplicate.

Escherichia coli = tested on: Escherichia coli
Method: as §1, §2

Pseudomonas aeruginosa = tested on: Pseudomonas aeruginosa
Method: as §1, §2

Aspergillus niger = tested on: Aspergillus niger
Method: as §1, §2

Staphylococcus aureus = tested on: Staphylococcus aureus
Method: as §1, §2

Klebsiella = experiment: MIC, serial dilution method; details: Klebsiella aeruginosa (so in the source); serial dilution 512-0.5 μg/mL, Luria-Bertani, 37°C, 16 to 18 hours; mean of three independent experiments in duplicate
Method: as §1
as §2, with “All MICs were determined in two independent experiments performed in duplicate.” left out

human red blood cells = experiment: Hemolytic assay; details: human RBC in PBS pH 7.4, 37°C, 1 h, absorbance 415 nm
Method: Hemolytic activity was determined by the procedure of Yoshida et al. with slight modifications. Fresh human blood (1 mL) was centrifuged at 1000 ×g for 5 min and the precipitates were collected and then washed 3 times with phosphate buffered saline (PBS) (pH 7.4). Precipitates were resuspended in 4-fold volumes of PBS. Then, 995 μL of PBS solution containing serial diluted peptides was added to a human erythrocyte solution of 5 μL. The resulting solution was incubated at 37°C for 1 h and was centrifuged at 1000 ×g for 5 min. The supernatant was diluted 5-fold with PBS and was monitored at 415 nm using a UV spectrophotometer. Zero hemolysis (blank) and 100% hemolysis were determined in PBS and 1% Triton X-100, respectively.

Row | Substance | MIC [1] | MIC (Escherichia coli) | MIC (Pseudomonas aeruginosa) | MIC (Aspergillus niger) | MIC (Staphylococcus aureus) | MIC (Klebsiella) | hemolysis (human red blood cells; 100% = 1% Triton X-100, tested at 10, 40, 160 and 640 μg/mL, value holds even at 640 μg/mL) | concentration causing the lysis of whole erythrocytes (human red blood cells)
1 | KFRWGKPV-NH2 [KPV-8] | >512 µg/mL | >512 µg/mL | >512 µg/mL | >512 µg/mL | >512 µg/mL | >512 µg/mL |  | 
2 | KWKKPKLLKKLLK [KWKK-13] | >512 µg/mL | 256 µg/mL | >512 µg/mL | >512 µg/mL | >512 µg/mL | >512 µg/mL |  | 
3 | KWKLFKKIWGKPV-NH2 [KPV-13] | 32 µg/mL | 512 µg/mL | >512 µg/mL | >512 µg/mL | >512 µg/mL | >512 µg/mL |  | 
4 | KWKYPKLLKKLLK [KW-13] | 4 µg/mL | 64 µg/mL | 128 µg/mL | 256 µg/mL | 16 µg/mL | 128 µg/mL | < 1% | 
5 | Melittin [reference compound] |  |  |  |  |  |  |  | below 40 μg/mL
6 | RRWWRFPPPRFPPRFPPP-NH2 [RFPP-18] | 512 µg/mL | 128 µg/mL | 256 µg/mL | >512 µg/mL | >512 µg/mL | >512 µg/mL |  | 
7 | RRWWRFPRFFRRFFR-NH2 [RFFR-15] | 128 µg/mL | 256 µg/mL | >512 µg/mL | >512 µg/mL | 64 µg/mL | >512 µg/mL |  | 
